{"source": "patent US9056916B2", "about": "“Method and assay kit for detection of toxicity induced by pyrrolizidine alkaloids” (priority 2012, dated 2015)", "format_in_all_cases": "binding, rabbit", "key": {"[1]": {"tested_on": "antiserum II", "test": "Competitive ELISA and cross-reactivity test of antiserum II", "conditions": "antiserum II 1:30000, pure PA as competitor", "protocol": "In competitive ELISA assay, one hundred microliters of coating antigen, BSA-pyrrole adducts, in PBS buffer was added to wells of a 96-well microtiter plate. The plates were incubated at 4° C. overnight or room temperature for 2 h. Serial dilutions of the competitor, N-acetyl-L-lysine-pyrrole, were prepared in PBST buffer. The resulting solution was mixed (1:1 v/v) with diluted antiserum in 5% nonfat milk dissolved in PBST buffer. The mixture was incubated at 4° C. overnight. The following day, the same procedure as in the titer analysis was followed. The absorbance at dual wavelength (450-650 nm) was read."}, "[2]": {"tested_on": "purified N-antibody", "test": "Competitive Western blot of purified N-antibody", "conditions": "competitor 0.1 mM or 1 mM, concentration-dependent", "protocol": "(§1) In Western and competitive Western blot assay, coating antigen was loaded and resolved by 7.5% SDS-PAGE and then transferred to nitrocellulose membranes. Blots were then blocked with 5% nonfat milk in PBST buffer for 1 h at room temperature. Blotted membranes were incubated with 1/4000 dilution of purified N-antibody in PBST buffer with 5% nonfat milk in the absence or 0.1 mM or 1 mM of pyrrole-(NHMe)2 at 4° C. overnight. The following day, after washing three times with PBST buffer, membranes were incubated with anti-rabbit IgG-horseradish peroxidase solution (1/5000 in PBST buffer with 5% nonfat milk) for 1 h at room temperature. After washing, protein bands were detected by chemiluminescence with an ECL detection kit. […] Moreover, the immune response was inhibited by pyrrole-containing competitor, pyrrole-(NHMe)2, in competitive Western blot assays, and the inhibitory effect was concentration-dependent manner (FIG. 9)."}, "[3]": {"tested_on": "purified S-antibody", "test": "Competitive Western blot of purified S-antibody", "conditions": "competitor 0.1 mM or 1 mM, concentration-dependent", "protocol": "as §1, with “S-antibody” for “N-antibody”, “pyrrole-(SMe)2” for “pyrrole-(NHMe)2”, “pyrrole-(SMe)2,” for “pyrrole-(NHMe)2,”, “(See FIG. 11).” for “(FIG. 9).”"}}, "data": [{"molecule": "C[C@H]1C(=O)O[C@@H]2CCN3CC=C(COC(=O)[C@](C)(O)[C@]1(C)O)[C@H]23", "note": "[monocrotaline]", "values": [{"measurement": "cross-reactivity with antiserum II", "setting": "[1]", "value": "no cross-reactivity"}]}, {"molecule": "pyrrole-(NHMe)2", "values": [{"measurement": "inhibition of immune response of N-antibody with BSA-pyrrole adducts", "setting": "[2]", "value": "inhibited"}]}, {"molecule": "pyrrole-(SMe)2", "values": [{"measurement": "inhibition of immune response of S-antibody with BSA-pyrrole adducts", "setting": "[3]", "value": "inhibited"}]}, {"molecule": "retrorsine", "values": [{"measurement": "cross-reactivity with antiserum II", "setting": "[1]", "value": "no cross-reactivity"}]}]}
